Assays:
Format in all cases: in vivo
[1] = tested on: mustard beetle larvae (Phaedon cochleariae); test: Phaedon larvae test; conditions: active compound concentration of 0.1%, after 7 days; cabbage leaves dipped
Protocol: (§1) Phaedon Larvae Test [table] To produce a suitable preparation of active compound, 1 part by weight of active compound is mixed with the stated amount of solvent and the stated amount of emulsifier, and the concentrate is diluted with water to the desired concentration. Cabbage leaves (Brassica oleracea) are treated by being dipped into the preparation of the active compound of the desired concentration and are infested with mustard beetle larvae (Phaedon cochleariae) while the leaves are still moist. After the specified period of time, the destruction in % is determined. 100% means that all the beetle larvae have been killed; 0% means that none of the beetle larvae have been killed.

[2] = tested on: larvae of the green rice leaf hopper (Nephotettix cincticeps); test: Nephotettix test; conditions: active compound concentration of 0.1%, after 6 days; rice seedlings dipped
Protocol: as §1, with “Nephotettix” for “Phaedon Larvae”, “Rice seedlings (Oryzae sativa)” for “Cabbage leaves (Brassica oleracea)”, “with” for “with mustard beetle”, “of the green rice leaf hopper (Nephotettix cincticeps)” for “(Phaedon cochleariae)”, “seedlings” for “leaves”, “the” for “the beetle”

[3] = tested on: caterpillars of the diamond-back moth (Plutella maculipennis); test: Plutella test; conditions: active compound concentration of 0.1%, after 7 days; cabbage leaves dipped
Protocol: Plutella Test [table] To produce a suitable preparation of active compound, 1 part by weight of active compound is mixed with the stated amount of solvent and the stated amount of emulsifier, and the concentrate is diluted with water to the desired concentration. Cabbage leaves (Brassica oleracea) are treated by being dipped into the preparation of active compound of the desired concentration and are infested with caterpillars of the diamond-back moth (Plutella maculipennis) while the leaves are still moist. After the specified period of time, the destruction in % is determined. 100% means that all the caterpillars have been killed, 0% means that none of the caterpillars have been killed.

[4] = tested on: caterpillars of the owlet moth (Spodoptera frugiperda); test: Spodoptera test; conditions: active compound concentration of 0.1%, after 7 days; cabbage leaves dipped
Protocol: To produce a suitable preparation of active compound, 1 part by weight of active compound is mixed with the stated amount of solvent and the stated amount of emulsifier, an d the concentrate is diluted with water to the d esired concentration.
Cabbage leaves (Brassica oleracea) are treated by being dipped into the preparation of the active compound of the desired concentration and are infested with caterpillars of the owlet moth (Spodoptera frugiperda) as long, as the leaves are still moist.
After the specified period of time, the destruction in % is determined. 100% means that all the caterpillars have been killed; 0% means that none of the caterpiliars have been killed.

[5] = tested on: fruit tree spider mite (Panonychus ulmi); test: Panonychus test; conditions: active compound concentration of 0.004%, after 7 days; plum trees sprayed
Protocol: Panonychus Test [table] To prepare a suitable preparation of active compound, 1 part by weight of active compound is mixed with the stated amount of solvent and the stated amount of emulsifier, and the concentrate is diluted with water to the desired concentration. Plum trees (Prunus domestica) approximately 30 cm in height which are severely infested by all stages of the fruit tree spider mite (Panonychus ulmi) are sprayed with an active compound preparation of the desired concentration. After the specified period of time, the destruction in % is determined. 100% means that all the spider mites have been killed; 0% means that none of the spider mites have been killed.

Row | Compound | destruction in % [1] [%] | destruction in % [2] [%] | destruction in % [3] [%] | destruction in % [4] [%] | efficacy (destruction in %) [5] [%]
1 | Cc1ccccc1-c1c(O)c(C)c(-c2ccccn2)oc1=O [Example I-4-a-1] | 100 | 100 | 100 | 85 | 
2 | Cc1ccccc1C1=C(O)C2(CCC(C)CC2)NC1=O (centres unmarked) [Example I-1-a-1] | 100 | 100 |  | 85 | 
3 | CC(C)(C)C(=O)OC1=C(c2ccccc2Cl)C(=O)OC12CCCCC2 [Example I-2-b-1] |  |  |  |  | 100

From patent US6596873B1, “2-and 2,5-substituted phenylketoenols” (Bayer Aktiengesellschaft, priority 1996, dated 2003)
